Measured values published in patent publication US7381688B2, “Methylthiophene carboxanilides” (Bayer CropScience AG, priority 2002, dated 2008).
Read-outs that look alike come from different tables or passages of the source.

What was measured:
[1] = logP determination by HPLC (reverse-phase C 18), EEC Directive 79/831 Annex V.A8; format: physicochemical; conditions: reverse-phase C18 HPLC column, 43° C.
Method: The logP value given in the Preparation Examples and tables above are determined in accordance with EEC Directives 79/831 Annex V.A8 by HPLC (High Performance Liquid Chromatography) using a reverse-phase column (C 18). Temperature: 43° C.
The determination is carried out in the acidic range at pH 2.3 using the mobile phases 0.1% aqueous phosphoric acid and acetonitrile; linear gradient from 10% acetonitrile to 90% acetonitrile.
Calibration is carried out using unbranched alkan-2-ones (having 3 to 16 carbon atoms) with known logP values (determination of the logP values by the retention times using linear interpolation between two successive alkanones).

[2] = test system: Pyrenophora teres; experiment: Pyrenophora teres test (barley)/protective; format: in vivo; conditions: protective, 500 g/ha, evaluation 7 days after inoculation
Method: Pyrenophora teres Test (Barley)/Protective
• Solvent: 25 parts by weight N,N-dimethylacetamide • Emulsifier: 0.6 part by weight alkylaryl polyglycol ether
(§1) To produce a suitable preparation of active compound, 1 part by weight of active compound is mixed with the stated amounts of solvent and emulsifier, and the concentrate is diluted with water to the desired concentration.
To test for protective activity, young plants are sprayed with the preparation of active compound at the stated application rate. After the spray coating has dried on, the plants are sprayed with a conidia suspension of Pyrenophora teres. The plants remain in an incubation cabin at 20° C. and 100% relative atmospheric humidity for 48 hours.
The plants are then placed in a greenhouse at a temperature of about 20° C. and relative atmospheric humidity of about 80%.
(§2) Evaluation is carried out 7 days after the inoculation. 0% means an efficacy which corresponds to that of the control, whereas an efficacy of 100% means that no infection is observed.

[3] = test system: Alternaria solani; experiment: Alternaria test (tomato)/protective; format: in vivo; conditions: protective, 750 g/ha, evaluation 7 days after inoculation
Method: Alternaria Test (Tomato)/Protective
• Solvent: 49 parts by weight N,N-dimethylformamide • Emulsifier: 1 part by weight of alkylaryl polyglycol ether
as §1
To test for protective activity, young tomato plants are sprayed with the preparation of active compound at the stated application rate. 1 day after the treatment, the plants are inoculated with a spore suspension of Alternaria solani and then remain at 100% relative humidity and 20° C. for 24 h. The plants then remain at 96% relative atmospheric humidity and a temperature of 20° C.
as §2

[4] = test system: Venturia inaequalis; experiment: Venturia test (apple)/protective; format: in vivo; conditions: 240 h, protective, evaluation 10 days after inoculation, read-out: Efficacy in %
Method: Venturia Test (Apple)/Protective
• Solvents: 24.5 parts by weight acetone • 24.5 parts by weight dimethylacetamide • Emulsifier: 1.0 part by weight alkylaryl polyglycol ether
To produce a suitable preparation of the active compound, 1 part by weight of active compound is mixed with the stated amounts of solvents and emulsifier, and the concentrate is diluted with water to the desired concentration.
To test for protective activity, young plants are sprayed with the preparation of active compound at the stated application rate. After the spray coating has dried on, the plants are inoculated with an aqueous Conidia suspension of the apple scab pathogen Venturia inaequalis and then remain in an incubation cabin at about 20° C. and 100% relative atmospheric humidity for 1 day.
The plants are then placed in a greenhouse at about 21° C. and a relative atmospheric humidity of about 90%.
(§3) Evaluation is carried out 10 days after the inoculation. 0% means an efficacy which corresponds to that of the control, whereas an efficacy of 100% means that no infection is observed.

[5] = test system: Sphaerotheca fuliginea; experiment: Sphaerotheca test (cucumber)/protective; format: in vivo; conditions: Podosphaera fuliginea, 168 h, protective, evaluation 7 days after inoculation, read-out: Efficacy in %
Method: Sphaerotheca Test (Cucumber)/Protective
(§4) • Solvents: 24.5 parts by weight of acetone • 24.5 parts by weight dimethylacetamide • Emulsifier: 1.0 part by weight alkylaryl polyglycol ether
(§5) To produce a suitable preparation of active compound, 1 part by weight of active compound is mixed with the stated amounts of solvents and emulsifier, and the concentrate is diluted with water to the desired concentration.
(§6) To test for protective activity, young plants are sprayed with the preparation of active compound at the stated application rate. After the spray coating has dried on, the plants are inoculated with an aqueous spore suspension of Sphaerotheca fuliginea. The plants are then placed in a greenhouse at about 23° C. and a relative atmospheric humidity of about 70%.
as §2

[6] = test system: Podosphaera leucotricha; experiment: Podosphaera test (apple)/protective; format: in vivo; conditions: 240 h, protective, evaluation 10 days after inoculation, read-out: Efficacy in %
Method: Podosphaera Test (Apple)/Protective
as §4, §5
as §6, with “the apple mildew pathogen Podosphaera leucotricha.” for “Sphaerotheca fuliginea.”
as §3

[7] = Table 1, acidic range at pH 2.3, HPLC, read-out: logP
[8] = pH 2.3, HPLC, read-out: logP (pH 2.3)

chromatographic logP [1, 7]	chromatographic logP [1, 8]	SMILES	Efficacy in % [2] [%]	Efficacy in % [3] [%]	pest or weed control at 100 g/ha [4] [%]	pest or weed control at 100 g/ha [5] [%]	pest or weed control at 100 g/ha [6] [%]
3.85	–	Cc1ccsc1C(=O)Nc1ccccc1-c1ccc(Cl)c(F)c1 [Example 10]	–	100	100	100	100
4.13	–	Cc1ccsc1C(=O)Nc1ccccc1-c1ccc(OC(F)(F)F)c(F)c1 [Example 11]	–	–	100	100	100
4.37	–	Cc1ccsc1C(=O)Nc1ccccc1-c1ccc(OC(F)(F)F)c(C(F)(F)F)c1 [Example 12]	–	–	–	100	100
4.32	–	Cc1ccsc1C(=O)Nc1ccccc1-c1cc(Cl)cc(Cl)c1 [Example 15]	–	–	97	100	100
3.55	–	Cc1ccsc1C(=O)Nc1ccccc1-c1ccc(F)c(F)c1 [Example 9]	100	100	100	100	100
5.76	–	Cc1ccsc1C(=O)Nc1ccccc1-c1ccc(Cl)cc1Cl [Example 19]	–	–	99	96	100
–	3.3	Cc1ccsc1C(=O)Nc1ccccc1Br [III-1, N-(2-bromophenyl)-3-methyl-2-thiophenecarboxamide]	–	–	–	–	–

Continued, compound first:

SMILES	chromatographic logP [1, 7]	chromatographic logP [1, 8]	Efficacy in % [2] [%]	Efficacy in % [3] [%]	pest or weed control at 100 g/ha [4] [%]	pest or weed control at 100 g/ha [5] [%]	pest or weed control at 100 g/ha [6] [%]
Cc1ccsc1C(=O)Nc1ccccc1-c1ccc(F)cc1 [Example 8]	3.65	–	80	100	–	–	–
Cc1ccsc1C(=O)Nc1ccccc1-c1ccc(F)c(Cl)c1 [Example 1, N-(3′-chloro-4′-fluoro-1,1′-biphenyl-2-yl)-3-methyl-2-thiophenecarboxamide]	–	3.85	–	–	100	100	100
Cc1ccsc1C(=O)Nc1ccccc1-c1ccc(OC(F)(F)F)cc1 [Example 6]	4.33	–	–	100	–	100	100
Cc1ccsc1C(=O)Nc1ccccc1-c1cccc(Cl)c1 [Example 5]	3.97	–	–	100	100	93	100
Cc1ccsc1C(=O)Nc1ccccc1-c1ccc(Cl)cc1F [Example 13]	–	–	94	–	100	100	100
Cc1ccsc1C(=O)Nc1ccccc1-c1ccc(Br)cc1 [Example 3]	4.12	–	–	100	–	–	–
